ChEMBL document CHEMBL3864148, “Synthesis of linear and angular aryl-morpholino-naphth-oxazines, their DNA-PK, PI3K, PDE3A and antiplatelet activity” (Bioorg Med Chem Lett, 2016)
pIC50: −log10 of the molar value.

Legend:
[1] = target: T1, Phosphatidylinositol 4,5-bisphosphate 3-kinase catalytic subunit alpha isoform (Homo sapiens, UniProt P42336); assay: Inhibition of p110alpha (unknown origin) assessed as decrease in ATP consumption at 10 uM after 60 mins by Kinase-Glo assay relative to control
T1 sequence (P42336 whole entry, canonical isoform): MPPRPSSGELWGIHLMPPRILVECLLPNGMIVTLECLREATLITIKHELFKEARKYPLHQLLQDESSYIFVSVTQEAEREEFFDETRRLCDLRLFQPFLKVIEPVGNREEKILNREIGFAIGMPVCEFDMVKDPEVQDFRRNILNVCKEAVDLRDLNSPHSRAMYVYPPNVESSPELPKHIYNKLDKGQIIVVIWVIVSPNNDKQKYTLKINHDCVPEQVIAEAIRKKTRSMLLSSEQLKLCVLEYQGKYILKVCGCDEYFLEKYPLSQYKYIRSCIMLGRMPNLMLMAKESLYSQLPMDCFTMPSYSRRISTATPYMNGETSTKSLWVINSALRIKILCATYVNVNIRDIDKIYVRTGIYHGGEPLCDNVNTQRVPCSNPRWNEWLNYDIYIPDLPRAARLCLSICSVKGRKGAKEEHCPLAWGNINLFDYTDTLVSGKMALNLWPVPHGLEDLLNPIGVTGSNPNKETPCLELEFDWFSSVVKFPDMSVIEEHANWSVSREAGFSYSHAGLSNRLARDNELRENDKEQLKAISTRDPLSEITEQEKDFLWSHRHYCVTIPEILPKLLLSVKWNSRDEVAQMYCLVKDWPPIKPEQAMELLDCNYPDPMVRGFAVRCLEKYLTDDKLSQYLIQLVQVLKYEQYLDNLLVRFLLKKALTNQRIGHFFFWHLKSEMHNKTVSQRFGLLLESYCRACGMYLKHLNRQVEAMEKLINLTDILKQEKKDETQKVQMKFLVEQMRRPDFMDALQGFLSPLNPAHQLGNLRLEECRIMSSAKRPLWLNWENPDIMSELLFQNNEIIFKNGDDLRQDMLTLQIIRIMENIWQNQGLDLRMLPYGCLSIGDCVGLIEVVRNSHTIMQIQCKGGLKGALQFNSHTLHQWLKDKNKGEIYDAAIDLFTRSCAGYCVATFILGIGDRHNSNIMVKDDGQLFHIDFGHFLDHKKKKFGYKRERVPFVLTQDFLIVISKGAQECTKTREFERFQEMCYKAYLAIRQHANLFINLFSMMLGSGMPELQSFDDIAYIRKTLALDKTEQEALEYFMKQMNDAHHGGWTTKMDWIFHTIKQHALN

[2] = target: T2, Phosphatidylinositol 4,5-bisphosphate 3-kinase catalytic subunit beta isoform (Homo sapiens, UniProt P42338); assay: Inhibition of p110beta (unknown origin) assessed as decrease in ATP consumption at 10 uM after 60 mins by Kinase-Glo assay relative to control
Target sequence in this assay (P42338 whole entry, looked up, canonical isoform): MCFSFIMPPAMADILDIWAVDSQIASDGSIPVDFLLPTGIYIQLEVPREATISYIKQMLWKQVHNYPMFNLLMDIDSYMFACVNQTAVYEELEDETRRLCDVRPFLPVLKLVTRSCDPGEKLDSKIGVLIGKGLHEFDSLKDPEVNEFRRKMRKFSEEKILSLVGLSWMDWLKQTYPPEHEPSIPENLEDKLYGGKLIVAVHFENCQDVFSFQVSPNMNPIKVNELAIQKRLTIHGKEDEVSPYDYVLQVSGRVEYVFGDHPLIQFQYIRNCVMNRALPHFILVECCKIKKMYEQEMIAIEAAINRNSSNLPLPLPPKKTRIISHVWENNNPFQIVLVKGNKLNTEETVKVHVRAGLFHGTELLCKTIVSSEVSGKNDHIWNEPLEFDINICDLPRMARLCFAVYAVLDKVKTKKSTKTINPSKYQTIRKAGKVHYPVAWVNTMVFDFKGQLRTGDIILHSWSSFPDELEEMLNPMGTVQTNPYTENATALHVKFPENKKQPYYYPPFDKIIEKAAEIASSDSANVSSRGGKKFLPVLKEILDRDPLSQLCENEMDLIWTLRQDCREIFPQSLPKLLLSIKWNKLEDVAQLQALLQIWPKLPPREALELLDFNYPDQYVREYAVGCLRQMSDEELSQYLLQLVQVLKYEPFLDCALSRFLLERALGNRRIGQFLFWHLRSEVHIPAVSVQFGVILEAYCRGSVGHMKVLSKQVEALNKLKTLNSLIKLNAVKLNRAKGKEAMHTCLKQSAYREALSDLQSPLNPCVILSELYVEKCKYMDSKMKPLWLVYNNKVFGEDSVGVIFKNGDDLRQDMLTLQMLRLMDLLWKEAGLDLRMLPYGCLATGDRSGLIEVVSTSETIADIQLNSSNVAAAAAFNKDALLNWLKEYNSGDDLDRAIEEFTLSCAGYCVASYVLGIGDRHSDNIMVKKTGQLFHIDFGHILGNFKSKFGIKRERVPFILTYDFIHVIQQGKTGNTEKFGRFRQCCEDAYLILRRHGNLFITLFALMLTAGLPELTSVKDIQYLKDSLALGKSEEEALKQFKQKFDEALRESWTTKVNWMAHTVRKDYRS

[3] = target: T3, Phosphatidylinositol 4,5-bisphosphate 3-kinase catalytic subunit gamma isoform (Homo sapiens, UniProt P48736); assay: Inhibition of p110gamma (unknown origin) assessed as decrease in ATP consumption at 10 uM after 60 mins by Kinase-Glo assay relative to control
Target sequence in this assay (P48736 whole entry, looked up, canonical isoform): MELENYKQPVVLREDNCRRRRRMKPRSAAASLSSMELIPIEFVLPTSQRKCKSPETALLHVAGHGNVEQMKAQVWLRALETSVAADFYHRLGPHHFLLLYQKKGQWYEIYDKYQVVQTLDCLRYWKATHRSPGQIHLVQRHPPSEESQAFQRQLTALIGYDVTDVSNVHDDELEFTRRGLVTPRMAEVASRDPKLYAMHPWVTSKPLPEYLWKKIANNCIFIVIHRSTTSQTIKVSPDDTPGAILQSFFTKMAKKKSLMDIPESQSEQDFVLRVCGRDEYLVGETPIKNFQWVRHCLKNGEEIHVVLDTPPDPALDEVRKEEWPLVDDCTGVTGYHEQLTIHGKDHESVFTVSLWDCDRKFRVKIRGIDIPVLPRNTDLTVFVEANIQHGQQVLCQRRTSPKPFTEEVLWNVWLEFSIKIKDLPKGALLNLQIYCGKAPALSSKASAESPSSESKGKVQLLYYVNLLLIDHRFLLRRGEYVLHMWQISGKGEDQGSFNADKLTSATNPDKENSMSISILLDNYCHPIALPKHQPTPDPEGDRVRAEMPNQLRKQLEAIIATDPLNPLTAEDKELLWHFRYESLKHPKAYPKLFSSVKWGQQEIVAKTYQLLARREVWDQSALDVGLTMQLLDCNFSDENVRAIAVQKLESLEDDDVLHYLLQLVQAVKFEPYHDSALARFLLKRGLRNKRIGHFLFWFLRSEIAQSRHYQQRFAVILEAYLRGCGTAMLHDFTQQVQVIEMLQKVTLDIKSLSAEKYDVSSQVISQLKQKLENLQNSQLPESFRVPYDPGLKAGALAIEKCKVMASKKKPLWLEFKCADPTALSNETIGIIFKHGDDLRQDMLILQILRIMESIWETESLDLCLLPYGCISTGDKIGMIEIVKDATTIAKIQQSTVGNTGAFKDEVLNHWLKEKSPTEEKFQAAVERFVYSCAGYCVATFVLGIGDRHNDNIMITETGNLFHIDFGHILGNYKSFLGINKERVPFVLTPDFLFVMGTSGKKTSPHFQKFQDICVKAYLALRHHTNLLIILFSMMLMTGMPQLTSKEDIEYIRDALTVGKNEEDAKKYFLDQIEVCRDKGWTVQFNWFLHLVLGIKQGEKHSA

[4] = target: T4, Phosphatidylinositol 4,5-bisphosphate 3-kinase catalytic subunit delta isoform (Homo sapiens) (UniProt O00329); assay: Inhibition of p110delta (unknown origin) assessed as decrease in ATP consumption at 10 uM after 60 mins by Kinase-Glo assay relative to control
T4 sequence (whole entry): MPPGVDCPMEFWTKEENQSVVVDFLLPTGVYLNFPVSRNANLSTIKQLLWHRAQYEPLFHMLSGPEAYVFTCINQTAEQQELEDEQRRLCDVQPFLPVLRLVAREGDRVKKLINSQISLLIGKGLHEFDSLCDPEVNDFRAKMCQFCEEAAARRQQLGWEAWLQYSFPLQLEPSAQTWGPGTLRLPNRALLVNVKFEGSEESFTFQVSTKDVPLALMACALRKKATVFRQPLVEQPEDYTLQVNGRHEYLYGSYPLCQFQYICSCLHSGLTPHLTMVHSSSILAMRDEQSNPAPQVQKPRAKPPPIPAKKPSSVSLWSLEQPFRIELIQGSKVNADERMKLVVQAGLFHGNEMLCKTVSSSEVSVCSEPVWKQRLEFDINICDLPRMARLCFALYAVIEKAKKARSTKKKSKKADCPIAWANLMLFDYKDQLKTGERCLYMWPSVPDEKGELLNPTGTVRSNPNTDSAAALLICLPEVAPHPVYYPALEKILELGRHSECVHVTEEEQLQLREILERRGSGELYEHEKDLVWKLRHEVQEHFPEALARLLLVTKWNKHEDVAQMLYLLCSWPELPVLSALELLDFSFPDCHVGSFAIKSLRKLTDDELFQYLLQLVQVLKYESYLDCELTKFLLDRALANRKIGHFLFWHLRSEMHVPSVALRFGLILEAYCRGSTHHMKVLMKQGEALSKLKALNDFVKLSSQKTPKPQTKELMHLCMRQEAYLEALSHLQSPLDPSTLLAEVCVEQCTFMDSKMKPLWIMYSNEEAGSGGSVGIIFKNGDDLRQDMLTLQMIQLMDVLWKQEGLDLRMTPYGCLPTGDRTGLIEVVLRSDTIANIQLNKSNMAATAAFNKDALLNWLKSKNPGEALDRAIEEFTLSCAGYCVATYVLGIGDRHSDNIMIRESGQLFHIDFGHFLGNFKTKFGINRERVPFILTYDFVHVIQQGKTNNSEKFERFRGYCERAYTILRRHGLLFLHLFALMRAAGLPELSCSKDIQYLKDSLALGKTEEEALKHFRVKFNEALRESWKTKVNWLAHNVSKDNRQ

[5] = target: DNA-PK/Ku70/Ku85 (Homo sapiens) (UniProt P78527+P12956+P13010); assay: Inhibition of human DNA-PK/Ku70/Ku85 at 10 uM using EPPLSQEAFADLWKK as substrate by HTRF assay relative to control
[6] = target: cGMP-inhibited 3',5'-cyclic phosphodiesterase 3A (Homo sapiens) (UniProt Q14432); assay: Inhibition of PDE3A (unknown origin) at 10 uM relative to control
Chain of cGMP-inhibited 3',5'-cyclic phosphodiesterase 3A (Homo sapiens) (Q14432 whole entry): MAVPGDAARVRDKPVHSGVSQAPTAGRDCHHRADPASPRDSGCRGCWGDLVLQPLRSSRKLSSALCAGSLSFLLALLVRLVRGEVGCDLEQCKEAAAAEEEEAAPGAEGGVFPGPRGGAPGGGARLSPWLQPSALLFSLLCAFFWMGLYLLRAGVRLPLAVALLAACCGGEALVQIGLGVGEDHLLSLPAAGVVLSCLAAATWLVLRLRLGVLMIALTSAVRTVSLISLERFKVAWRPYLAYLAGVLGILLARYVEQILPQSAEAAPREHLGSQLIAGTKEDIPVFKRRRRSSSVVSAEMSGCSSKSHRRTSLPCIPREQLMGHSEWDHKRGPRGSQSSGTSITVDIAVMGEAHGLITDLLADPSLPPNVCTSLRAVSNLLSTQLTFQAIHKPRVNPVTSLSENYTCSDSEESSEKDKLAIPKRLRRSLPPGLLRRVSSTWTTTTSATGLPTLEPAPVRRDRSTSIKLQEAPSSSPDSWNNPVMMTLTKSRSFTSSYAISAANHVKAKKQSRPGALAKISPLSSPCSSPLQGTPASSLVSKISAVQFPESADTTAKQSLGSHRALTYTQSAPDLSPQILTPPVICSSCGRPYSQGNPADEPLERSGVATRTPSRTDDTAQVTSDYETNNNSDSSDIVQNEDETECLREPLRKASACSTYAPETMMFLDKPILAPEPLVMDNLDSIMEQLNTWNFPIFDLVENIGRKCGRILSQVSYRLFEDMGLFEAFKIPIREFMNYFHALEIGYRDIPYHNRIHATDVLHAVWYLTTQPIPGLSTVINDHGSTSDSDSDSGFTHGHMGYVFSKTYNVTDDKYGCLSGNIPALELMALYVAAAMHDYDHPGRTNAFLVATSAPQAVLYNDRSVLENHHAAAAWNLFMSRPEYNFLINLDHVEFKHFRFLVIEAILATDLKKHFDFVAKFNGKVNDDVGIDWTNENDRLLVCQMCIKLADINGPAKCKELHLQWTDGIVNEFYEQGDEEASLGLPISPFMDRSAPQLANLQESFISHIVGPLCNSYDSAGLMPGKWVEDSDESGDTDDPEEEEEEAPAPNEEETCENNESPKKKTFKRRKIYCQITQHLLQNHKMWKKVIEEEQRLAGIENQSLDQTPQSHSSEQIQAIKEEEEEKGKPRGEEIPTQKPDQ

[7] = Antiplatelet activity in human platelet rich plasma assessed as inhibition of collagen-induced platelet aggregation preincubated for 2 mins followed by collagen addition by two-channel platelet aggregometer; assay type: functional
[8] = target: DNA-PK/Ku70/Ku85 (Homo sapiens, UniProt P12956+P13010+P78527); assay: Inhibition of human DNA-PK/Ku70/Ku85 using EPPLSQEAFADLWKK as substrate by HTRF assay relative to control
[9] = target: T1, Phosphatidylinositol 4,5-bisphosphate 3-kinase catalytic subunit alpha isoform; assay: Inhibition of p110alpha (unknown origin) assessed as decrease in ATP consumption after 60 mins by Kinase-Glo assay
[10] = target: T2, Phosphatidylinositol 4,5-bisphosphate 3-kinase catalytic subunit beta isoform; assay: Inhibition of p110beta (unknown origin) assessed as decrease in ATP consumption after 60 mins by Kinase-Glo assay
Target sequence in this assay (P42338 whole entry, canonical isoform): as the sequence (P42338 whole entry, looked up, canonical isoform) above

[11] = target: T3, Phosphatidylinositol 4,5-bisphosphate 3-kinase catalytic subunit gamma isoform; assay: Inhibition of p110gamma (unknown origin) assessed as decrease in ATP consumption after 60 mins by Kinase-Glo assay
Target sequence in this assay (P48736 whole entry, canonical isoform): as the sequence (P48736 whole entry, looked up, canonical isoform) above

[12] = target: T5, Phosphatidylinositol 4,5-bisphosphate 3-kinase catalytic subunit delta isoform (Homo sapiens, UniProt O00329); assay: Inhibition of p110delta (unknown origin) assessed as decrease in ATP consumption after 60 mins by Kinase-Glo assay
T5 sequence (O00329 whole entry): T4 sequence (whole entry)

| Structure (SMILES) | inhibition [1] [%] | inhibition [2] [%] | inhibition [3] [%] | inhibition [4] [%] | inhibition [5] [%] | inhibition [6] [%] | pIC50 [7] | pIC50 [8] | pIC50 [9] | pIC50 [10] | pIC50 [11] | pIC50 [12] |
| --- | --- | --- | --- | --- | --- | --- | --- | --- | --- | --- | --- | --- |
| COc1ccc(-c2cc3c(=O)nc(N4CCOCC4)oc3c3ccccc23)cc1 | 20 | 42 | 17 | 9 | 19 | 26 | 4.85 | – | – | – | – | – |
| O=c1nc(N2CCOCC2)oc2c1cc(-c1cccs1)c1ccccc12 | – | – | – | – | 34 | 32 | – | – | – | – | – | – |
| O=c1nc(N2CCOCC2)oc2ccc3ccccc3c12 | 4 | 23 | 2 | 8 | – | – | < 4.10 | 4.41 | – | – | – | – |
| O=c1nc(N2CCOCC2)oc2c1cc(-c1ccccc1)c1ccccc12 | 35 | 10 | 34 | 3 | 22 | 15 | 5.52 | – | – | – | – | – |
| O=c1nc(N2CCOCC2)oc2ccc3cc(-c4cccc5c4oc4ccccc45)ccc3c12 | – | – | – | – | 0 | 12 | – | – | – | – | – | – |
| O=c1nc(N2CCOCC2)oc2c1cc(-c1ccc(CO)cc1)c1ccccc12 | – | – | – | – | – | 35 | – | – | – | – | – | – |
| O=c1nc(N2CCOCC2)oc2c1cc(-c1ccsc1)c1ccccc12 | – | – | – | – | 22 | 22 | – | – | – | – | – | – |
| O=c1nc(N2CCOCC2)oc2c1cc(-c1cccc3ccccc13)c1ccccc12 | – | – | – | – | 10 | 26 | – | – | – | – | – | – |
| O=c1nc(N2CCOCC2)oc2ccc3cc(-c4ccc(Cl)cc4)ccc3c12 | -5 | -1 | 0 | -1 | 8.1 | -4 | – | – | – | – | – | – |
| O=c1nc(N2CCOCC2)oc2c1cc(-c1cccc3c1oc1ccccc13)c1ccccc12 | 9 | 22 | 24 | 0 | 24 | 11 | 5.70 | – | – | – | – | – |
| O=c1nc(N2CCOCC2)oc2c1cc(-c1ccc(Cl)cc1)c1ccccc12 | – | – | – | – | 11 | 1 | – | – | – | – | – | – |
| O=c1nc(N2CCOCC2)oc2c1ccc1ccccc12 | 22 | 15 | 4 | 12 | – | – | < 4.10 | 5.00 | – | – | – | – |
| COc1ccc(-c2ccc3c(ccc4oc(N5CCOCC5)nc(=O)c43)c2)cc1 | 0 | 0 | -2 | 0 | – | 18 | – | – | – | – | – | – |
| O=c1nc(N2CCOCC2)oc2c(-c3ccccc3)c3ccccc3cc12 | – | – | – | – | – | 32 | < 4.10 | 4.11 | 4.36 | < 4.30 | < 4.30 | 5.11 |
| O=c1nc(N2CCOCC2)oc2ccc3cc(-c4cccc5c4sc4ccccc45)ccc3c12 | – | – | – | – | 0 | 5 | – | – | – | – | – | – |
| O=c1nc(N2CCOCC2)oc2c1cc(/C=C/c1ccccc1)c1ccccc12 | – | – | – | – | 5.9 | 18 | – | – | – | – | – | – |
| O=c1nc(N2CCOCC2)oc2c1cc(-c1cccc3c1sc1ccccc13)c1ccccc12 | 23 | 11 | 12 | 0 | 0 | 30 | 5.30 | – | – | – | – | – |
| O=c1nc(N2CCOCC2)oc2c(-c3ccc(Cl)cc3)c3ccccc3cc12 | 8 | 0 | 3 | 52 | – | 24 | < 4.10 | < 4.00 | – | – | – | – |
| Nc1cccc(-c2cc3c(=O)nc(N4CCOCC4)oc3c3ccccc23)c1 | – | – | – | – | – | -3 | – | – | – | – | – | – |
| COc1ccc(-c2c3ccccc3cc3c(=O)nc(N4CCOCC4)oc23)cc1 | – | – | – | – | – | 6 | < 4.10 | 4.92 | < 4.30 | < 4.30 | < 4.30 | 5.25 |
| NC(=O)c1ccc(-c2cc3c(=O)nc(N4CCOCC4)oc3c3ccccc23)cc1 | – | – | – | – | 10 | 7 | – | – | – | – | – | – |
| O=c1nc(N2CCOCC2)oc2cc3ccccc3cc12 | – | – | – | -10 | – | – | – | – | – | – | – | – |
| O=c1nc(N2CCOCC2)oc2ccc3cc(-c4ccccc4)ccc3c12 | -2 | -3 | 1 | -1 | 0 | 13 | – | – | – | – | – | – |
